Earlier results, collected in patent US20090318371A1 (priority 2006, published 2009).
Blank lines part the entries; values can stand above or below the compound they belong to.

What was measured:
[1] = topical administration
[2] = clinical studies
[3] = tested on: human polymorphonuclear leukocyte chemotactic and chemokinetic responses; conditions: in vivo and in vitro
[4] = Ames test
[5] = during the following 10 hours of topical administration
[6] = clinical phase I
[7] = Ames, chromosomal aberration and micronuclei
[8] = topical application to mice for 21 months
[9] = Phase III clinical studies
[10] = multiple topical administrations, equivalent to 10 mg/ml in water and isopropyl alcohol solution

SMILES: COc1ccc(-c2ccc3cc(C(=O)O)ccc3c2)cc1C12CC3CC(CC(C3)C1)C2 [Adapalene]
Presence of Adapalene compared to Tretinoin on the dermis ([1]; dermis): −37%
Presence of Adapalene compared to Tretinoin on the epidermis ([1]; epidermis): +51%
Presence of Adapalene compared to Tretinoin in receptor fluid ([1]; receptor fluid): −71%
Plasma levels [2]: no significant plasma levels were detected
Anti-inflammatory activity compared to other topical retinoids [3]: superior to other topical retinoids

SMILES: O=C(OOC(=O)c1ccccc1)c1ccccc1 [Benzoyl peroxide]
Activity against Propionibacterium acnes (Propionibacterium acnes): effective against Propionibacterium acnes
Mutagenicity [4]: not mutagenic

SMILES: CCC[C@@H]1C[C@@H](C(=O)N[C@@H]([C@H]2O[C@H](SC)[C@H](O)[C@@H](O)[C@H]2O)[C@H](C)Cl)N(C)C1 [Clindamycin]
Binding to plasma proteins (in vivo): Ninety percent or more
Share of administered clindamycin excreted intact in urine (urine): 10%

Continued, in another order:

Absorption, share of the dose absorbed [5]: Less than 6.0%
SMILES: CCOC(=O)c1ccc(C#Cc2ccc3c(c2)C(C)(C)CCS3)nc1 [Tazarotene]
Sensitization, phototoxicity or photoallergicity [6]: does not cause sensitization, phototoxicity or photoallergicity
Mutagenicity, clastogenic or chromosomal effects [7]: not mutagenic and has no clastogenic or chromosomal effects
Carcinogenic effects [8]: non-carcinogenic effects
Adverse effects reported [9]: burning sensation, skin scaling and dryness

Share of the dosage recovered in urine as clindamycin [10]: less than 0.2%
SMILES: CCC[C@@H]1C[C@@H](C(=O)N[C@@H]([C@H]2O[C@H](SC)[C@H](OP(=O)(O)O)[C@@H](O)[C@H]2O)[C@H](C)Cl)N(C)C1 [clindamycin phosphate, Clindamycin phosphate]
